Measured values reported in US10765114B2, “4-amino-6-(pyridyl and 2-substitutedphenyl)-picolinates and 6-amino-2-(pyridyl and 2-substitutedphenyl)-pyrimidine-4-carboxylates and their use as herbicides” (Dow AgroSciences LLC, priority 2013, dated 2020).

tested on: Key Grass and Sedge Weeds as well as Grass Crops; assay: Post-Emergent Test II (Table 6); assay type: in vivo; conditions: post-emergence, 336 h, ZEAMX: maize, corn (Zea mays), 140 g ai/ha, 14 days after application, read-out: Visual Growth Reduction (%) 14 Days After Application ZEAMX
How it was run: (§1)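 Visual injury ratings (0 = no injury, 100 = complete kill) were taken 14 days after treatment relative to untreated plants. Seedlings at the first or second true leaf stage received an overhead spray at 187 L/ha, and solvent-blank sprayed plants served as controls.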

Q: With `COC(=O)c1nc(-c2ccc(Cl)nc2Cl)cc(N)c1Cl` [Compound 15, methyl 4-amino-2′,5,6′-trichloro-[2,3′-bipyridine]-6-carboxylate] as the molecule, how does the pest or weed control at 140 g/ha read?
A: 0 to 29%

tested on: Key Broadleaf Weed and Crop Species; assay: Post-Emergent Test II (Table 5); assay type: in vivo; conditions: Abutilon theophrasti, post-emergence, 336 h, ABUTH: velvetleaf (Abutilon theophrasti), application rate 70 (kg ai/ha; footnote: g ai/ha), read-out: Visual Growth Reduction (%) 14 Days After Application ABUTH
How it was run: as §1

Q: For `COC(=O)c1nc(-c2ccc(Cl)nc2Cl)cc(N)c1Cl` [Compound 15, methyl 4-amino-2′,5,6′-trichloro-[2,3′-bipyridine]-6-carboxylate], which pest or weed control at 70 g/ha is on record?
A: 75 to 84%

same assay, conditions: Abutilon theophrasti, post-emergence, 336 h, ABUTH: velvetleaf (Abutilon theophrasti), application rate 140 (kg ai/ha; footnote: g ai/ha), read-out: Visual Growth Reduction (%) 14 Days After Application ABUTH

Q: For `COC(=O)c1nc(-c2ccc(Cl)nc2Cl)cc(N)c1Cl` [Compound 15, methyl 4-amino-2′,5,6′-trichloro-[2,3′-bipyridine]-6-carboxylate], which pest or weed control at 140 g/ha is on record?
A: 85 to 94%

same assay, conditions: Amaranthus retroflexus, post-emergence, 336 h, AMARE: redroot pigweed (Amaranthus retroflexus), application rate 70 (kg ai/ha; footnote: g ai/ha), read-out: Visual Growth Reduction (%) 14 Days After Application AMARE

Q: With `COC(=O)c1nc(-c2ccc(Cl)nc2Cl)cc(N)c1Cl` [Compound 15, methyl 4-amino-2′,5,6′-trichloro-[2,3′-bipyridine]-6-carboxylate] as the molecule, how does the pest or weed control at 70 g/ha read?
A: 95 to 100%

same assay, conditions: Amaranthus retroflexus, post-emergence, 336 h, AMARE: redroot pigweed (Amaranthus retroflexus), application rate 140 (kg ai/ha; footnote: g ai/ha), read-out: Visual Growth Reduction (%) 14 Days After Application AMARE

Q: Which pest or weed control at 140 g/ha does the source give for `COC(=O)c1nc(-c2ccc(Cl)nc2Cl)cc(N)c1Cl` [Compound 15, methyl 4-amino-2′,5,6′-trichloro-[2,3′-bipyridine]-6-carboxylate] here?
A: 95 to 100%

same assay, conditions: Brassica napus, post-emergence, 336 h, BRSSS: oilseed rape, canola (Brassica napus), application rate 70 (kg ai/ha; footnote: g ai/ha), read-out: Visual Growth Reduction (%) 14 Days After Application BRSSS

Q: For `COC(=O)c1nc(-c2ccc(Cl)nc2Cl)cc(N)c1Cl` [Compound 15, methyl 4-amino-2′,5,6′-trichloro-[2,3′-bipyridine]-6-carboxylate], which pest or weed control at 70 g/ha is on record?
A: 60 to 74%

same assay, conditions: Brassica napus, post-emergence, 336 h, BRSSS: oilseed rape, canola (Brassica napus), application rate 140 (kg ai/ha; footnote: g ai/ha), read-out: Visual Growth Reduction (%) 14 Days After Application BRSSS

Q: With `COC(=O)c1nc(-c2ccc(Cl)nc2Cl)cc(N)c1Cl` [Compound 15, methyl 4-amino-2′,5,6′-trichloro-[2,3′-bipyridine]-6-carboxylate] as the molecule, how does the pest or weed control at 140 g/ha read?
A: 75 to 84%

same assay, conditions: Chenopodium album, post-emergence, 336 h, CHEAL: lambsquarters (Chenopodium album), application rate 70 (kg ai/ha; footnote: g ai/ha), read-out: Visual Growth Reduction (%) 14 Days After Application CHEAL

Q: With `COC(=O)c1nc(-c2ccc(Cl)nc2Cl)cc(N)c1Cl` [Compound 15, methyl 4-amino-2′,5,6′-trichloro-[2,3′-bipyridine]-6-carboxylate] as the molecule, how does the pest or weed control at 70 g/ha read?
A: 85 to 94%

same assay, conditions: Chenopodium album, post-emergence, 336 h, CHEAL: lambsquarters (Chenopodium album), application rate 140 (kg ai/ha; footnote: g ai/ha), read-out: Visual Growth Reduction (%) 14 Days After Application CHEAL

Q: For `COC(=O)c1nc(-c2ccc(Cl)nc2Cl)cc(N)c1Cl` [Compound 15, methyl 4-amino-2′,5,6′-trichloro-[2,3′-bipyridine]-6-carboxylate], which pest or weed control at 140 g/ha is on record?
A: 85 to 94%

same assay, conditions: Euphorbia heterophylla, post-emergence, 336 h, EPHHL: wild poinsettia (Euphorbia heterophylla), application rate 70 (kg ai/ha; footnote: g ai/ha), read-out: Visual Growth Reduction (%) 14 Days After Application EPHHL

Q: For `COC(=O)c1nc(-c2ccc(Cl)nc2Cl)cc(N)c1Cl` [Compound 15, methyl 4-amino-2′,5,6′-trichloro-[2,3′-bipyridine]-6-carboxylate], which pest or weed control at 70 g/ha is on record?
A: 0 to 29%

same assay, conditions: Euphorbia heterophylla, post-emergence, 336 h, EPHHL: wild poinsettia (Euphorbia heterophylla), application rate 140 (kg ai/ha; footnote: g ai/ha), read-out: Visual Growth Reduction (%) 14 Days After Application EPHHL

Q: Which pest or weed control at 140 g/ha does the source give for `COC(=O)c1nc(-c2ccc(Cl)nc2Cl)cc(N)c1Cl` [Compound 15, methyl 4-amino-2′,5,6′-trichloro-[2,3′-bipyridine]-6-carboxylate] here?
A: 0 to 29%

same assay, conditions: Helianthus annuus, post-emergence, 336 h, HELAN: sunflower (Helianthus annuus), application rate 70 (kg ai/ha; footnote: g ai/ha), read-out: Visual Growth Reduction (%) 14 Days After Application HELAN

Q: With `COC(=O)c1nc(-c2ccc(Cl)nc2Cl)cc(N)c1Cl` [Compound 15, methyl 4-amino-2′,5,6′-trichloro-[2,3′-bipyridine]-6-carboxylate] as the molecule, how does the pest or weed control at 70 g/ha read?
A: 85 to 94%

same assay, conditions: Helianthus annuus, post-emergence, 336 h, HELAN: sunflower (Helianthus annuus), application rate 140 (kg ai/ha; footnote: g ai/ha), read-out: Visual Growth Reduction (%) 14 Days After Application HELAN

Q: Which pest or weed control at 140 g/ha does the source give for `COC(=O)c1nc(-c2ccc(Cl)nc2Cl)cc(N)c1Cl` [Compound 15, methyl 4-amino-2′,5,6′-trichloro-[2,3′-bipyridine]-6-carboxylate] here?
A: 95 to 100%

same assay, conditions: Viola tricolor, post-emergence, 336 h, VIOTR: wild pansy (Viola tricolor), application rate 70 (kg ai/ha; footnote: g ai/ha), read-out: Visual Growth Reduction (%) 14 Days After Application VIOTR

Q: For `COC(=O)c1nc(-c2ccc(Cl)nc2Cl)cc(N)c1Cl` [Compound 15, methyl 4-amino-2′,5,6′-trichloro-[2,3′-bipyridine]-6-carboxylate], which pest or weed control at 70 g/ha is on record?
A: 30 to 44%

same assay, conditions: Viola tricolor, post-emergence, 336 h, VIOTR: wild pansy (Viola tricolor), application rate 140 (kg ai/ha; footnote: g ai/ha), read-out: Visual Growth Reduction (%) 14 Days After Application VIOTR

Q: Which pest or weed control at 140 g/ha does the source give for `COC(=O)c1nc(-c2ccc(Cl)nc2Cl)cc(N)c1Cl` [Compound 15, methyl 4-amino-2′,5,6′-trichloro-[2,3′-bipyridine]-6-carboxylate] here?
A: 30 to 44%

tested on: not given; assay: not given; conditions: not given

Q: For `COC(=O)c1nc(-c2ccc(Cl)nc2Cl)cc(N)c1Cl` [Compound 15, methyl 4-amino-2′,5,6′-trichloro-[2,3′-bipyridine]-6-carboxylate], which melting point is on record?
A: 231 °C
